For test [1], the system named is adult H. irritans exigua. Put plainly: Adult H. irritans exigua feeding assay (blood meal assay). Conditions: for mortality at 0.2 ppm: 200 ppb in bovine blood; for mortality at 0.4 ppm: 400 ppb in bovine blood; for mortality at 0.6 ppm: 600 ppb in bovine blood. The method, then:
A blood meal assay was used to determine the LC50 for test compound (3-bromo-1-(3-chloro-2-pyridinyl)-N-[4-cyano-2-methyl-6-[(methylamino)carbonyl]phenyl]-1H-pyrazole-5-carboxamide) on adult H. irritans exigua. Six (6) serial dilutions of the test compound were prepared in decoagulated bovine blood that was stored refrigerated. Ivermectin was included as a positive control compound and a negative control was included in each assay. Flies were collected with a net immediately before each assay from yarded commercial cattle. About 100 adults were introduced into a mesh cage (30×30×30 cm) containing one cotton gauze (4×4×1 cm) soaked in one blood/insecticide concentration. There were 3 replicate cages of each blood/insecticide concentration. Blood gauzes were replaced every 12 hours. The untreated control cages received untreated decoagulated blood. All cages were labelled and stored for 72 hours at 25-27° C. in the dark at ambient relative humidity (70-85%). […] At 72-96 hours all flies were counted and percentage mortality was calculated. Data was subjected to log-probit analysis to determine the LC50 if there is a dose response in the assay.

For test [2], the system named is Adult A. aegypti. Put plainly: Adult A. aegypti contact assay. To be noted: treated flask base, bioassay run for 8 hrs. The protocol:
Adult A. aegypti were exposed to six rates of the positive control compound permethrin and the experimental compounds diluted with acetone. The dilutions of test compound (3-bromo-1-(3-chloro-2-pyridinyl)-N-[4-cyano-2-methyl-6-[(methylamino)carbonyl]phenyl]-1H-pyrazole-5-carboxamide)used were 0 ppm (acetone only), 0.1 ppm, 1 ppm, 10 ppm, 20 ppm, 50 ppm, 100 ppm, 500 ppm and 1000 ppm. Each rate was replicated 5 times. The test was conducted in 100 mL conical flasks. The entire inside of the flasks was coated with Coatasil the day before the treatments are applied. A 0.5 ml aliquot of each rate was applied to the bases only of the flasks. At 24 hours after the surfaces had been treated adult A. aegypti were anaesthetised using food grade carbon dioxide and 10 mosquitoes were introduced to each conical flask and the mouths of the flasks covered with parafilm. Small holes were made in the parafilm to allow gas exchange. The bioassay was run for 8 hrs at 25±2° C. and relative humidity of approximately 70%.

The test system of test [3] is Brown Dog Ticks (R. sanguineus). Put plainly: In vivo evaluation against artificial infestations with brown dog ticks on dogs. Conditions: topical, test compound 60 mg/kg line-on in NMP, 9 days post-treatment. The source says:
Twenty five dogs were used in this study that investigated the efficacy of test compound (3-bromo-1-(3-chloro-2-pyridinyl)-N-[4-cyano-2-methyl-6-[(methylamino)carbonyl]phenyl]-1H-pyrazole-5-carboxamide)
against fleas and ticks. Two groups (one treated and one untreated) of five dogs were used to evaluate the flea efficacy whilst two groups of five dogs (one treated and one untreated) were used to investigate the tick efficacy. The dogs in the respective groups were infested weekly with 40 unfed adult ticks and 100 cat fleas. One group was treated with ADVANTIX and served as a positive control. The dogs in this group were infested simultaneously with fleas and ticks. Test compound was formulated in NMP. The treatment was applied topically via syringe on the dorsal line of the animals as a line-on at 60 mg/kg dose rate. The efficacy of the compound was assessed by weekly tick and flea counts. The weekly counts generated in the treated groups were compared to the positive and negative untreated control (UTC) group counts to evaluate efficacy of Test compound.

The subject of test [4] is cat flea (Ctenocephalides felis Bouche). Put plainly: In vivo evaluation against artificial infestations with cat fleas on mice. Conditions: CD-1 mouse, 10 mg/kg oral in propylene glycol/glycerol formal (60:40), fleas applied 2 h after dosing, evaluated 48 hours after flea application. The protocol:
For evaluating control of the cat flea (Ctenocephalides felis Bouche), a CD-1® mouse (about 30 g, male, obtained from Charles River Laboratories, Wilmington, Mass.) was orally dosed with test compound in an amount of 10 mg/kg solubilized in propylene glycol/glycerol formal (60:40). Two hours after oral administration of the test compound, approximately 8 to 16 adult fleas were applied to each mouse. The fleas were then evaluated for mortality 48 hours after flea application to the mouse.

The record followed here is patent US8932613B2, “Ectoparasite control method” (E I du Pont de Nemours and Company, priority 2007, dated 2015).

The mortality is the percentage killed. Higher therefore signals a strong lethal effect.

Turning to `CNC(=O)c1cc(C#N)cc(C)c1NC(=O)c1cc(Br)nn1-c1ncccc1Cl` [Test compound, 3-bromo-1-(3-chloro-2-pyridinyl)-N-[4-cyano-2-methyl-6-[(methylamino)carbonyl]phenyl]-1H-pyrazole-5-carboxamide], in test [1] (exposure time 7 hr), the mortality at 0.2 ppm is 77.3%, the mortality at 0.4 ppm came out at 78.8% and the mortality at 0.6 ppm was 80.5%. In test [1] (exposure time 17 hr), this compound yielded a mortality at 0.2 ppm of 78.8%, a mortality at 0.4 ppm of 89.8% and a mortality at 0.6 ppm of 94.7%. For the same compound, in test [1] (exposure time 24 hr), the mortality at 0.2 ppm came to 80.3%, the mortality at 0.4 ppm was determined as 94.9% and the mortality at 0.6 ppm amounted to 96.5%. For the same compound, the LC90 in test [2] is 0.033 ug/flask. Moreover, the efficacy against ticks entry in test [3] was “over 94.9%”. In test [4], this compound gave a flea mortality of 45%.
`CC1(C)C(C=C(Cl)Cl)C1C(=O)OCc1cccc(Oc2ccccc2)c1` (stereo not shown) [Permethrin, reference compound]: in test [2], the LC90 worked out at 0.046 ug/flask.
